The target in this assay is C-C chemokine receptor type 5 (Homo sapiens, UniProt P51681). Briefly: Inhibition of RANTES binding to the human C-C chemokine receptor type 5 (CCR5).
Chain of C-C chemokine receptor type 5 (P51681 whole entry): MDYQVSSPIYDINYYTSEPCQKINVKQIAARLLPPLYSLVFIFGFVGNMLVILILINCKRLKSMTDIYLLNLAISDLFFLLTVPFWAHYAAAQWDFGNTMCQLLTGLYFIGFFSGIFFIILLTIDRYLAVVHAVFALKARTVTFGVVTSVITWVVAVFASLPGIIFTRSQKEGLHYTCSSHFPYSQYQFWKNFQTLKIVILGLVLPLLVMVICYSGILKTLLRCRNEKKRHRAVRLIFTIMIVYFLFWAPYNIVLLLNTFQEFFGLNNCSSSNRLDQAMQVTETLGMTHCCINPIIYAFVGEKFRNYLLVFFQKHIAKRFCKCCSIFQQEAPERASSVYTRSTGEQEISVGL

The Ki is a dissociation constant, usually derived from enzyme kinetics or from competition with a known ligand. On to `Cc1cccc(C)c1C(=O)N1CCC(C)(N2CCC(Cc3ccc(-c4ccccc4)cc3)CC2)CC1`, for which the Ki was 360 nM.
Then `Cc1cccc(C)c1C(=O)N1CCC(C)(N2CCC(Cc3ccc(Cl)cc3)CC2)CC1`, with 68 nM.
Then `COc1ccc(CC2CCN(C3(C)CCN(C(=O)c4c(C)cccc4C)CC3)CC2)cc1`, with 155 nM; and `Cc1cccc(C)c1C(=O)N1CCC(C)(N2CCC(Cc3ccc(I)cc3)CC2)CC1`, with 33 nM.
Regarding `Cc1cccc(C)c1C(=O)N1CCC(C)(N2CCC(Cc3ccc(S(C)(=O)=O)cc3)CC2)CC1`, the Ki amounted to 33 nM.
Then `Cc1cccc(C)c1C(=O)N1CCC(C)(N2CCC(Cc3ccc(C(F)(F)F)cc3)CC2)CC1`, with 25 nM; and `C=C(c1ccc(Br)cc1)C1CCN(C2(C)CCN(C(=O)c3c(C)cccc3C)CC2)CC1`, with 8 nM.
For the compound `Cc1ccc(CC2CCN(C3(C)CCN(C(=O)c4c(C)cccc4C)CC3)CC2)cc1`, the Ki worked out at 110 nM. Compared with the last compound, the Ki is about 14-fold higher.
In the case of `Cc1cccc(C)c1C(=O)N1CCC(C)(N2CCC(C(C)c3ccc(Br)cc3)CC2)CC1` (configuration not stated), the inhibition constant (Ki) was 62 nM.
Consider `CO/N=C(/c1ccc(Br)cc1)C1CCN(C2(C)CCN(C(=O)c3c(C)cccc3C)CC2)CC1`, for which the Ki is 2 nM.
In the case of `C[C@H]1CN(C2(C)CCN(C(=O)c3c(N)cccc3Cl)CC2)CCN1[C@@H](C)c1ccc(I)cc1` it was 12 nM; in that of `Cc1cccc(C)c1C(=O)N1CCC(C)(N2CCN([C@@H](C)c3ccc(C(F)(F)F)cc3)[C@@H](C)C2)CC1`, 1 nM.
In turn, `CCO/N=C(/c1ccc(Br)cc1)C1CCN(C2(C)CCN(C(=O)c3c(C)c[n+]([O-])cc3C)CC2)CC1` gave a Ki of 8.8 nM.
In the case of `CCO/N=C(/c1ccc(Br)cc1)C1CCN(C2(C)CCN(C(=O)c3c(C)cncc3C)CC2)CC1` it was 2.3 nM; in that of `CCO/N=C(/c1ccc(Br)cc1)C1CCN(C2(C)CCN(C(=O)c3cccnc3C)CC2)CC1`, 26 nM.
The compound `CO/N=C(/c1ccc(Br)cc1)C1CCN(C2(C)CCN(C(=O)c3c(C)cc[n+]([O-])c3C)CC2)CC1` yielded a Ki of 19 nM.
Then `CCO/N=C(/c1ccc(S(C)(=O)=O)cc1)C1CCN(C2(C)CCN(C(=O)c3c(C)cc[n+]([O-])c3C)CC2)CC1`, with 20 nM; and `CCO/N=C(/c1ccc(Br)cc1)C1CCN(C2(C)CCN(C(=O)c3c(C)ccnc3C)CC2)CC1`, with 1.1 nM; and `CCO/N=C(/c1ccc(Br)cc1)C1CCN(C2(C)CCN(C(=O)c3c(Cl)c[n+]([O-])cc3Cl)CC2)CC1`, with 1.2 nM.
Regarding `CO/N=C(/c1ccc(S(C)(=O)=O)cc1)C1CCN(C2(C)CCN(C(=O)c3c(C)cc[n+]([O-])c3C)CC2)CC1`, the Ki came to 30 nM.
In the case of `CCO/N=C(/c1ccc(Br)cc1)C1CCN(C2(C)CCN(C(=O)c3c(C)cc(C)nc3O)CC2)CC1` it was 43 nM; in that of `Cc1cccc(C)c1C(=O)N1CCC(C)(N2CCC(/C(=N\OC(C)C)c3ccc(Br)cc3)CC2)CC1`, 4 nM.
In the case of `CO/N=C(/c1ccc(Br)cc1)C1CCN(C2(C)CCN(C(=O)c3c(C)cccc3N)CC2)CC1` it was 4.5 nM; in that of `CCO/N=C(/c1ccc(Br)cc1)C1CCN(C2(C)CCN(C(=O)c3c(C)cc[nH]c3=O)CC2)CC1`, > 30 nM.
Then `CO/N=C(/c1ccc(Br)cc1)C1CCN(C2(C)CCN(C(=O)c3c(C)ccnc3C)CC2)CC1`, with 1.1 nM.
Consider `CCO/N=C(/c1ccc(Br)cc1)C1CCN(C2(C)CCN(C(=O)c3c(C)ccc[n+]3[O-])CC2)CC1`, for which the Ki is 16 nM.
As for `Cc1cccc(C)c1C(=O)N1CCC(C)(N2CCC(/C(=N\Oc3ccccc3)c3ccc(Br)cc3)CC2)CC1`, the Ki is > 30 nM.
In the case of `C[C@H]1CN(C2CCN(C(=O)c3c(F)cccc3I)CC2)CCN1[C@@H](C)c1ccc(I)cc1` it was 1300 nM; in that of `CCO/N=C(/c1ccc(Br)cc1)C1CCN(C2(C)CCN(C(=O)c3ccc[n+]([O-])c3C)CC2)CC1`, > 30 nM.
Then `CCO/N=C(/c1ccc(Br)cc1)C1CCN(C2(C)CCN(C(=O)c3c(C)cc(-c4ccncc4)cc3C)CC2)CC1`, with 0.1 nM.
For `CCO/N=C(/c1ccc(Br)cc1)C1CCN(C2(C)CCN(C(=O)c3cccnc3)CC2)CC1`, the Ki was > 30 nM.
Then `CCO/N=C(/c1ccc(Br)cc1)C1CCN(C2(C)CCN(C(=O)c3ccc[n+]([O-])c3)CC2)CC1`, with > 30 nM; and `CO/N=C(/c1ccc(Br)cc1)C1CCN(C2(C)CCN(C(=O)c3c(C)ncnc3C)CC2)CC1`, with 4.7 nM.
Consider `CCO/N=C(/c1ccc(F)cc1)C1CCN(C2(C)CCN(C(=O)c3c(C)cc[n+]([O-])c3C)CC2)CC1`, for which the Ki amounted to 30 nM.
The compound `CCOC(=O)CO/N=C(/c1ccc(Br)cc1)C1CCN(C2(C)CCN(C(=O)c3c(C)cccc3C)CC2)CC1` showed a Ki of 33 nM.
Turning to `CCO/N=C(/c1ccc(Br)cc1)C1CCN(C2(C)CCN(C(=O)c3c(C)ncnc3C)CC2)CC1`, the affinity corresponds to a Ki of 2.2 nM.
As to `CCO/N=C(/c1ccc(C(F)(F)F)cc1)C1CCN(C2(C)CCN(C(=O)c3c(C)cc[n+]([O-])c3C)CC2)CC1`, affinity was put at a Ki of 3.8 nM.
`Cc1cccc(C)c1C(=O)N1CCC(C)(N2CCC(Cc3ccc(OC(F)(F)F)cc3)CC2)CC1` displayed a Ki of 55 nM.
In the case of `Cc1cccc(O)c1C(=O)N1CCC(C)(N2CCN([C@@H](C)c3ccc(I)cc3)[C@@H](C)C2)CC1` it was 7 nM; in that of `CCO/N=C(/c1ccc(Br)cc1)C1CCN(C2(C)CCN(C(=O)c3c(C)cccc3C)CC2)CC1`, 2 nM; in that of `CCO/N=C(/c1ccc(Br)cc1)C1CCN(C2(C)CCN(C(=O)c3c(C)cc(O)nc3C)CC2)CC1`, 7 nM.
In the case of `CO/N=C(/c1ccc(Br)cc1)C1CCN(C2(C)CCN(C(=O)c3c(N)cccc3Cl)CC2)CC1` it was 3.4 nM; in that of `Cc1cccc(C)c1C(=O)N1CCC(C)(N2CCC(/C(=N\OC(C)(C)C)c3ccc(Br)cc3)CC2)CC1`, 9 nM.
With `CCO/N=C(/c1ccc(Br)cc1)C1CCN(C2(C)CCN(C(=O)c3c(Br)c[n+]([O-])cc3Br)CC2)CC1`, the Ki came out at 0.7 nM.
As for `CNC(=O)CO/N=C(/c1ccc(Br)cc1)C1CCN(C2(C)CCN(C(=O)c3c(C)cccc3C)CC2)CC1`, the affinity, expressed as Ki, was 33 nM. This Ki is about 47-fold higher than that of the compound before.
In the case of `CCO/N=C(/c1ccc(Cl)cc1)C1CCN(C2(C)CCN(C(=O)c3c(C)cc[n+]([O-])c3C)CC2)CC1` it was 5.6 nM.
Then `CCO/N=C(/c1ccc(Br)cc1)C1CCN(C2(C)CCN(C(=O)c3c(F)cccc3C(F)(F)F)CC2)CC1`, with 3 nM.

The record behind these values is ChEMBL document CHEMBL1144903, “Generation of predictive pharmacophore models for CCR5 antagonists: study with piperidine- and piperazine-based compounds as a new class of HIV-1 entry inhibitors” (J Med Chem, 2003).
